Biological target: P70S6K (T412E mutant) (Homo sapiens (Human), UniProt P23443, T412E)
Experiment: P70S6K enzyme assay
Type: biochemical
Settings: 3 nM P70S6K T412E mutant, 24 μM ATP, 1 μM FITC-AHA-AKRRRLSSLRA-OH substrate peptide, 90 min at 25° C.
Method in brief: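 IC50s come from mobility-shift separation of phospho-product from FITC-AHA-AKRRRLSSLRA-OH substrate (1 μM) after the reaction was quenched with 10 mM EDTA. The reaction used 3 nM T412E-mutant enzyme and 24 μM ATP, running 90 min at 25° C in 100 mM Hepes pH 7.5 buffer.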

P70S6K (T412E mutant), sequence (P23443 whole entry T412E): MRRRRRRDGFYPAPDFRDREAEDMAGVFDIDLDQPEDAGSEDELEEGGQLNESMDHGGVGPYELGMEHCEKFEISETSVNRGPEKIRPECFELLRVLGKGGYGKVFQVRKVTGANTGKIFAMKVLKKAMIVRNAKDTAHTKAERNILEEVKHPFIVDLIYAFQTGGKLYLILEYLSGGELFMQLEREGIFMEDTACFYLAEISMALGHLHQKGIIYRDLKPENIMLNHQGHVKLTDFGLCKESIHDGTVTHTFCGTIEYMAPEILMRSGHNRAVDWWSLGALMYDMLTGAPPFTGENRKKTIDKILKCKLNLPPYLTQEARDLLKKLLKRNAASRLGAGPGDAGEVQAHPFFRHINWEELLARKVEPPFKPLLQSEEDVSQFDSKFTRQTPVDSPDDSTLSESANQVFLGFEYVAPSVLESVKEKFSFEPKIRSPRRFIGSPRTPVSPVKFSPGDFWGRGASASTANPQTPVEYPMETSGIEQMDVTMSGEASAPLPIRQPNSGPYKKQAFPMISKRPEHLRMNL

Compound | IC50
Nc1ncnc(N2CCN(C(CN3CCC3)c3cccc(C(F)(F)F)c3Cl)CC2)c1-c1cn[nH]c1 (centres unmarked) [Example 134, 6-{4-[2-Azetidin-1-yl-1-(2-chloro-3-trifluoromethyl-phenyl)-ethyl]-piperazin-1-yl}-5-(1H-pyrazol-4-yl)-pyrimidin-4-ylamine] | 300 nM
CC(c1ccc(Cl)cc1OC1CNC1)N1CCN(c2ncnc(N)c2-c2ccc(F)cc2)CC1 (centres unmarked) [Example 63, 6-(4-{1-[2-(Azetidin-3-yloxy)-4-chloro-phenyl]-ethyl}-piperazin-1-yl)-5-(4-fluoro-phenyl)-pyrimidin-4-ylamine] | 980 nM
CN(C)CC(c1ccc(C(F)(F)F)cc1)N1CCN(c2ncnc(N)c2Br)CC1 (centres unmarked) [Example 14, 5-bromo-6-(4-(2-(dimethylamino)-1-(4-(trifluoromethyl)phenyl)ethyl)piperazin-1-yl)pyrimidin-4-amine] | 38 nM
NCC(c1ccc(C(F)(F)F)cc1)N1CCN(c2ncnc(N)c2Cl)CC1 (centres unmarked) [Example 80, 6-{4-[2-Amino-1-(4-trifluoromethyl-phenyl)-ethyl]-piperazin-1-yl}-5-chloro-pyrimidin-4-ylamine] | 79 nM
NCC(c1ccc(C(F)(F)F)cc1)C1CCN(c2ncnc(N)c2-c2cn[nH]c2)CC1 (centres unmarked) [Example 55, 6-(4-(2-amino-1-(4-(trifluoromethyl)phenyl)ethyl)piperidin-1-yl)-5-(1H-pyrazol-4-yl)pyrimidin-4-amine] | 5.2 nM
COc1ccc(C(CN2CCC2)N2CCN(c3ncnc(N)c3-c3ccc(F)cc3)CC2)cc1F (centres unmarked) [Example 92, 6-{4-[2-Azetidin-1-yl-1-(3-fluoro-4-methoxy-phenyl)-ethyl]-piperazin-1-yl}-5-(4-fluoro-phenyl)-pyrimidin-4-ylamine] | 300 nM
NC[C@H](c1ccc(C(F)(F)F)cc1)C1CCN(c2ncnc(N)c2-c2cn[nH]c2)CC1 (single isomer, unassigned) [Example 56] | 22 nM
CN(C)C[C@@H](c1ccc(C(F)(F)F)cc1)N1CCN(c2ncnc(N)c2-c2ccc(F)cc2)CC1 [Example 17, (R)-6-(4-(2-(dimethylamino)-1-(4-(trifluoromethyl)phenyl)ethyl)piperazin-1-yl)-5-(4-fluorophenyl)pyrimidin-4-amine] | 1.7 nM
Nc1ncnc(N2CCC(Cc3ccc(Cl)cc3)CC2)c1Br [Example 46, 5-Bromo-6{4-(4-chlorobenzyl)-piperidin-1-yl}pyrimidin-4-amine] | 630 nM
Nc1ncnc(N2CCN(C(CN3CCCCC3)c3cccc(F)c3)CC2)c1Br (centres unmarked) [Example 68, 5-Bromo-6{4-[1-(3-fluoro-phenyl)-2-piperidin-1-yl-ethyl]-piperazin-1-yl}-pyrimidin-4-ylamine] | > 1000 nM
Nc1ncnc(N2CCN(C(CCCN3CCC3)c3ccc(Cl)cc3)CC2)c1-c1ccc(F)cc1 (centres unmarked) [Example 113, 6-{4-[4-Azetidin-1-yl-1-(4-chloro-phenyl)-butyl]-piperazin-1-yl}-5-(4-fluoro-phenyl)-pyrimidin-4-ylamine] | > 1000 nM
Nc1ncnc(N2CCN([C@@H](CN3CCC3)c3ccc4c(c3)OCCO4)CC2)c1-c1ccc(F)cc1 [Example 94, 6-{4-[(R)-2-Azetidin-1-yl-1-(2,3-dihydro-benzo[1,4]dioxin-6-yl)-ethyl]-piperazin-1-yl}-5-(4-fluoro-phenyl)-pyrimidin-4-ylamine] | 1600 nM
NC(=O)c1c(N)ncnc1N1CCC(N)(C(=O)N[C@@H](CCO)c2ccc(Cl)cc2)CC1 [Example 247] | 3600 nM
C=Cc1c(N)ncnc1N1CCC(C(O)c2ccc(F)cc2)CC1 (centres unmarked) [Example 141, 1-6-amino-5-(vinylpyrimidin-4-yl)piperidin-4-yl-4-(fluorophenyl)methanol] | 1000 nM
NC[C@@H](c1ccc(C(F)(F)F)cc1)C1CCN(c2ncnc(N)c2-c2ccc(F)cc2)CC1 [Example 54, 6-{4-[(R)-2-Amino-1-(4-trifluoromethyl-phenyl)-ethyl]-piperidin-1-yl}-5-(4-fluoro-phenyl)-pyrimidin-4-ylamine] | 4.5 nM
C=Cc1c(N)ncnc1N1CCN(C(CN(C)C)c2ccc(C(F)(F)F)cc2)CC1 (centres unmarked) [Example 21, 6-(4-(2-(dimethylamino)-1-(4-(trifluoromethyl)phenyl)ethyl)piperazin-1-yl)-5-vinylpyrimidin-4-amine] | 35 nM
Nc1ncnc(N2CCN(C(CN3CCC3)c3ccc4c(c3)CCCC4)CC2)c1-c1ccc(N2CCNCC2)nc1 (centres unmarked) [Example 115, 6-{4-[2-Azetidin-1-yl-1-(5,6,7,8-tetrahydro-naphthalen-2-yl)-ethyl]-piperazin-1-yl}-5-(6-piperazin-1-yl-pyridin-3-yl)-pyrimidin-4-ylamine] | > 100000 nM
Nc1ncnc(N2CCC(C(OCCN3CCCC3)c3ccc(F)cc3)CC2)c1-c1ccc(F)cc1 (centres unmarked) [Example 146, 5-(4-fluoropheny)6-(4-((4-fluorophenyl)(2-(pyrrolidin-1-yl)ethoxy)methyl)-piperidin-1-yl)pyrimidin-4-amine] | 11 nM

Results, then the molecule that gave them:

IC50 | Compound
110 nM | N#CC(c1ccc(Cl)nc1)N1CCN(c2ncnc(N)c2-c2ccc(F)cc2)CC1 (centres unmarked) [Example 173, {4-[6-Amino-5-(4-fluoro-phenyl)-pyrimidin-4-yl]-piperazin-1-yl}-(6-chloro-pyridin-3-yl)-acetonitrile]
460 nM | Nc1ncnc(N2CCC(C(c3ccc(F)cc3)N3CCC(F)(F)C3)CC2)c1-c1ccc(F)cc1 (centres unmarked) [Example 149, 5-(4-fluoropheny)-6-(4-((4-fluorophenyl)(3-difluoropyrrolidin-1-yl)methyl)piperidin-1-yl)pyrimidin-4-amine]
230 nM | N#CC(c1cccnc1)N1CCN(c2ncnc(N)c2-c2ccc(F)cc2)CC1 (centres unmarked) [Example 190, {4-[6-Amino-5-(4-fluoro-phenyl)-pyrimidin-4-yl]-piperazin-1-yl}-pyridin-3-yl-acetonitrile]
5000 nM | COC[C@H](NC(=O)C1(N)CCN(c2ncnc(N)c2C(N)=O)CC1)c1ccc(Cl)cc1 [Example 246, 4-Amino-6-{4-amino-4-[(R)-1-(4-chloro-phenyl)-2-methoxy-ethylcarbamoyl]-piperidin-1-yl}-pyrimidine-5-carboxylic acid amide]
8.5 nM | NCC(c1ccc(Cl)nc1)N1CCN(c2ncnc(N)c2-c2ccc(F)cc2)CC1 (centres unmarked) [Example 174, 6-{4-[2-Amino-1-(6-chloro-pyridin-3-yl)-ethyl]-piperazin-1-yl}-5-(4-fluoro-phenyl)-pyrimidin-4-ylamine]
100 nM | COC[C@H](NC(=O)C1(N)CCN(c2ncnc(N)c2-c2cn[nH]c2)CC1)c1ccc(Cl)cc1 [Example 240, 4-Amino-1-[6-amino-5-(1H-pyrazol-4-yl)-pyrimidin-4-yl]-piperidine-4-carboxylic acid [(R)-1-(4-chloro-phenyl)-2-methoxy-ethyl]-amide]
120 nM | Nc1ncnc(N2CCC(N)(CNC(=O)c3ccc(F)cc3F)C2)c1-c1ccc(Oc2ccccc2)cc1 (centres unmarked) [Example 200, N-{3-Amino-1-[6-amino-5-(4-phenoxy-phenyl)-pyrimidin-4-yl]-pyrrolidin-3-ylmethyl}-2,4-difluoro-benzamide]
44 nM | N#CC(c1ccc(Cl)c(F)c1)N1CCN(c2ncnc(N)c2-c2ccc(F)cc2)CC1 (centres unmarked) [Example 164, {4-[6-Amino-5-(4-fluoro-phenyl)-pyrimidin-4-yl]-piperazin-1-yl}-(4-chloro-3-fluoro-phenyl)-acetonitrile]
9.5 nM | COc1ccc(-c2c(N)ncnc2N2CCC(N)(CNC(=O)c3ccc(F)cc3F)C2)cn1 (centres unmarked) [Example 201, N-{3-Amino-1-[6-amino-5-(6-methoxy-pyridin-3-yl)-pyrimidin-4-yl]-pyrrolidin-3-ylmethyl}-2,4-difluoro-benzamide]
2.6 nM | Nc1ncnc(N2CCC(N)(CNC(=O)c3ccc(F)cc3F)C2)c1-c1cccc(F)c1 (centres unmarked) [Example 204, N-{3-Amino-1-[6-amino-5-(3-fluoro-phenyl)-pyrimidin-4-yl]-pyrrolidin-3-ylmethyl}-2,4-difluoro-benzamide]
560 nM | COC[C@H](NC(=O)C1(N)CCN(c2ncnc(N)c2Cl)CC1)c1ccc(Cl)cc1 [Example 234, 4-Amino-1-(6-amino-5-chloro-pyrimidin-4-yl)-piperidine-4-carboxylic acid [(R)-1-(4-chloro-phenyl)-2-methoxy-ethyl]-amide]
11 nM | NCC(c1cccc(C(F)(F)F)c1)N1CCN(c2ncnc(N)c2-c2ccc(F)cc2)CC1 (centres unmarked) [Example 153, 6-{4-[2-Amino-1-(3-trifluoromethyl-phenyl)-ethyl]-piperazin-1-yl}-5-(4-fluoro-phenyl)-pyrimidin-4-ylamine]
250 nM | Nc1ncnc(N2CCC(N)(C(=O)N[C@@H](CCO)c3ccc(Cl)cc3)CC2)c1Cl [Example 235, 4-Amino-1-(6-amino-5-chloro-pyrimidin-4-yl)-piperidine-4-carboxylic acid [(S)-1-(4-chloro-phenyl)-3-hydroxy-propyl]-amide]
33 nM | CN(C)CCNC(c1ccc(F)cc1)C1CCN(c2ncnc(N)c2-c2ccc(F)cc2)CC1 (centres unmarked) [Example 150, 1-(6-amino-5-(4-fluorophenyl)pyrimidin-4-yl)(4-((4-fluorophenyl))methyl)-dimethylethane-1,2-diamine]
390 nM | N#Cc1c(N)ncnc1N1CCC(N)(C(=O)N[C@@H](CCO)c2ccc(F)cc2)CC1 [Example 243, 4-Amino-1-(6-amino-5-cyano-pyrimidin-4-yl)-piperidine-4-carboxylic acid [(S)-1-(4-fluoro-phenyl)-3-hydroxy-propyl]-amide]
530 nM | NC(=O)c1c(N)ncnc1N1CCC(N)(CNC(=O)c2ccc(F)cc2F)C1 (centres unmarked) [Example 197, 4-Amino-6-{3-amino-3-[(2,4-difluoro-benzoylamino)-methyl]-pyrrolidin-1-yl}-pyrimidine-5-carboxamide]
0.9 nM | NCC(c1ccc(Cl)c(F)c1)N1CCN(c2ncnc(N)c2-c2ccc(F)cc2)CC1 (centres unmarked) [Example 165, 6-{4-[2-Amino-1-(4-chloro-3-fluoro-phenyl)-ethyl]-piperazin-1-yl}-5-(4-fluoro-phenyl)-pyrimidin-4-ylamine]

— patent US9321760B2 (Merck Patent GmbH, priority 2011, dated 2016)
